The source of these data is patent US20260262642A1, “Compositions Containing Guanidine and 1,2-Benzisothiazoline-3-On” (priority 2023, published 2026).

Where a name gives a salt, the structure may show the parent alone.

Common to all, as to type: cell-based
For test [1], the system named is Bacteria mixture (Pseudomonas spp. DSM 33933, Pseudomonas aeruginosa DSM 33935, Pseudomonas oleovorans DSM 33936, Pseudomonas spec. DSM 33937, Pseudomonas …). The experiment in a line: Stability of emulsion paint against microbial infestation, inoculated with bacteria mixture, semiquantitative streak evaluation. Further details: key: 0: No growth; Minimal growth, 1 to 10 colonies visible over the entire streak; 2: Light growth, maximum 100 colonies; Moderate growth, maximum 300 to 400 colonies; Uniform growth, >400 colonies, single colonies still clearly recognizable; 5: Heavy growth, too many colonies to count, but no growth over the entire streak; 6: Full growth, barely any single colonies still apparent, growth over the entire streak. The note with it: for Bacterial growth Day 1: directly after inoculation; for Bacterial growth Day 6: incubation at 30° C. As for the experimental part:
The detergent was a heavy-duty laundry detergent without preservatives (pH 8.1), and the cleaning composition was an all-purpose detergent without preservatives (pH 7.6), each likewise made in the laboratory, without addition of the otherwise usual conventional preservatives. To each paint was added—individually and in combination—particular concentrations of guanidinium hydrochloride and benzisothiazolinone (BIT). The detergent and cleaning composition were admixed with particular concentrations of guanidinium hydrochloride and benzisothiazolinone (BIT). The resultant batches of the paint thus prepared were inoculated with a mixture of various bacteria; the batches of the detergent and cleaning composition thus prepared were inoculated with a yeast mixture. • Pseudomonas spp. (Pseudomonas oleovorans group) DSM 33933 • Pseudomonas aeruginosa DSM 33935 • Pseudomonas oleovorans DSM 33936 • Pseudomonas spec. DSM 33937 • Pseudomonas aeruginosa DSM 33938 The inoculum was added to the respective sample in each inoculation at 2% (v/w) as a fresh cell suspension in a physiological saline solution (0.9% NaCl). The cell count of the inoculum added was 10^9/ml for the bacteria mixture, 10^8/ml for the yeast mixture, consisting in equal parts of the individual bacteria strains or yeast strains. The cell suspension of the bacteria mixture was produced by growing the individual bacteria at 30° C. for 24 h in liquid culture on a shaker. The growth medium used for the bacteria was Müller-Hinton liquid medium. After growing, the individual liquid cultures were centrifuged, and the cells were resuspended in physiological saline solution. In order to adjust the mixture to a total cell count of 10^9/ml, the individual bacteria suspensions, if necessary, were diluted accordingly before being combined with saline solution. The cell count of the inoculum was determined in each case by chamber counting. In examples 2 to 4, the samples were inoculated once with the respective cell suspensions (2% v/w) and the development of the bacteria or yeasts was followed by a semiquantitative evaluation method. In the inoculated samples, microbial infestation was evaluated in each case directly after inoculation on day 1 and on day 6 (emulsion paint) after incubation at 30° C. for a further 5 days, or on day 3 (detergent, cleaning composition) after incubation at 30° C. for a further 2 days. For this purpose, an aliquot was taken from each sample after homogenization using a sterile plastic inoculation loop (10 μl) and streaked evenly on agar plates (tryptic soy agar in the case of bacteria, Sabouraud glucose-agar in the case of yeasts). […] After incubation, the bacterial or yeast colonies that had grown on the agar plates were visually evaluated and quantified according to the following scheme: [table] […]

Test [2] has as its system Yeast mixture (Pichia manshurica DSM 12249, Rhodotorula mucilaginosa DSM 12248, Candida boidinii DSM 13622, Candida albicans DSM 1386). The experiment in a line: Stability of all-purpose detergent (cleaning composition) against microbial infestation, inoculated with yeast mixture, semiquantitative streak evaluation. Further details: key to Yeast growth Day 1: 0: No growth; Minimal growth, 1 to 10 colonies visible over the entire streak; 2: Light growth, maximum 100 colonies; Moderate growth, maximum 300 to 400 colonies; Uniform growth, >400 colonies, single colonies still clearly recognizable; 5: Heavy growth, too many colonies to count, but no growth over the entire streak; 6: Full growth, barely any single colonies still apparent, growth over the entire streak. The note with it: for Yeast growth Day 1: directly after inoculation; for Yeast growth Day 3: incubation at 30° C. The protocol:
(§1) The detergent was a heavy-duty laundry detergent without preservatives (pH 8.1), and the cleaning composition was an all-purpose detergent without preservatives (pH 7.6), each likewise made in the laboratory, without addition of the otherwise usual conventional preservatives. To each paint was added—individually and in combination—particular concentrations of guanidinium hydrochloride and benzisothiazolinone (BIT). The detergent and cleaning composition were admixed with particular concentrations of guanidinium hydrochloride and benzisothiazolinone (BIT). The resultant batches of the paint thus prepared were inoculated with a mixture of various bacteria; the batches of the detergent and cleaning composition thus prepared were inoculated with a yeast mixture. • Pichia manshurica DSM 12249 • Rhodotorula mucilaginosa DSM 12248 • Candida boidinii DSM 13622 • Candida albicans DSM 1386 The inoculum was added to the respective sample in each inoculation at 2% (v/w) as a fresh cell suspension in a physiological saline solution (0.9% NaCl). The cell count of the inoculum added was 10^9/ml for the bacteria mixture, 10^8/ml for the yeast mixture, consisting in equal parts of the individual bacteria strains or yeast strains. The cell suspension of the yeast mixture was produced by growing the yeasts on Sabouraud glucose-agar at 25° C. for 48 hours and washing down the cell lawn with physiological saline solution (0.9% NaCl). Further steps for establishment of a cell count of the inoculum suspension of 10^8/ml were effected analogously to the production of the bacteria suspension. In examples 2 to 4, the samples were inoculated once with the respective cell suspensions (2% v/w) and the development of the bacteria or yeasts was followed by a semiquantitative evaluation method. In the inoculated samples, microbial infestation was evaluated in each case directly after inoculation on day 1 and on day 6 (emulsion paint) after incubation at 30° C. for a further 5 days, or on day 3 (detergent, cleaning composition) after incubation at 30° C. for a further 2 days. For this purpose, an aliquot was taken from each sample after homogenization using a sterile plastic inoculation loop (10 μl) and streaked evenly on agar plates (tryptic soy agar in the case of bacteria, Sabouraud glucose-agar in the case of yeasts). The streaked agar plates were then incubated at 30° C. for 48 hours (bacteria) or at 25° C. for 72 hours (yeasts). After incubation, the bacterial or yeast colonies that had grown on the agar plates were visually evaluated and quantified according to the following scheme: [table] Inoculation 2% (w/v) with Yeast Mixture, Cell Count 10^8/ml

Test [3] has the same test system. The experiment in a line: Stability of heavy-duty laundry detergent against microbial infestation, inoculated with yeast mixture, semiquantitative streak evaluation. Further details: key: 0: No growth; Minimal growth, 1 to 10 colonies visible over the entire streak; 2: Light growth, maximum 100 colonies; Moderate growth, maximum 300 to 400 colonies; Uniform growth, >400 colonies, single colonies still clearly recognizable; 5: Heavy growth, too many colonies to count, but no growth over the entire streak; 6: Full growth, barely any single colonies still apparent, growth over the entire streak. The note with it: for Yeast growth Day 1: directly after inoculation; for Yeast growth Day 3: incubation at 30° C. As for the experimental part:
as §1, with “w/v” for “(w/v)”, “a East” for “Yeast”

Test [4] relates to Pseudomonas spec. DSM 115322. The experiment in a line: Study of the synergistic interaction: minimum inhibitory concentrations (MICs) and synergy index in Müller-Hinton broth, microplates. The note with it: 48 hours at 30° C.; for Synergy index Qa/QA + Qb/QB: sole agent. As for the experimental part:
The test organism used was a Gram-negative bacterial species from the group of pseudomonads, Pseudomonas spec. DSM 115322. For this purpose, mixtures with different concentrations of the respective actives were prepared and tested for their effect on pseudomonads. The test was run in Müller-Hinton broth MHB with a cell density of 10^6 microbes per ml. The incubation was run in microplates at 30° C. for 48 hours. After 48 hours, the batches were evaluated for turbidity resulting from growth, and optical density was additionally determined photometrically. In this way, the minimum inhibitory concentrations (MICs) of the two actives were determined individually and in combination. The synergism that occurred was represented numerically by calculating the synergy index (SI). The calculation was done according to the standard method of F. C. Kull et al., Applied Microbiology, vol. 9 (1961), p. 538. This involves calculating the synergy index (SI) by the following formula: […] Calculation of the synergy index of guanidine and BIT with respect to Pseudomonas spec.

The mark [5] stands for this setting: emulsion paint +6000 ppm guanidine hydrochloride (3708 ppm guanidine).
Where [6] appears, read: all-purpose detergent +8000 ppm guanidine hydrochloride (4944 ppm guanidine).
Setting [7] is: detergent +8000 ppm guanidine hydrochloride (4944 ppm guanidine).
The mark [8] stands for this setting: all-purpose detergent +100 ppm BIT.

Turning to `N=C(N)N` [guanidine hydrochloride], in test [1] (setting [5]), the “Bacterial growth Day 1” value was found to be 6 and the “Bacterial growth Day 6” value worked out at 6. Moreover, in test [2] (setting [6]), the “Yeast growth Day 1” value is 6 and the “Yeast growth Day 3” value is recorded as 4 (Uniform growth, >400 colonies, single colonies still clearly recognizable). Moreover, in test [3] (setting [7]), the “Yeast growth Day 1” value was determined as 6 and the “Yeast growth Day 3” value turned out to be 6.
`O=c1[nH]sc2ccccc12` [BIT, 1,2-benzisothiazolin-3-one]: in test [1] (emulsion paint +500 ppm BIT), the “Bacterial growth Day 1” value is 6 and the “Bacterial growth Day 6” value is given as 6. In test [2] (setting [8]), the “Yeast growth Day 1” value stood at 6 and the “Yeast growth Day 3” value is given as 4 (Uniform growth, >400 colonies, single colonies still clearly recognizable). Further, in test [4] (BIT alone (0 ppm guanidine), MHB, 10^6 microbes per ml), the “Qb (BIT): concentration of BIT as the sole agent that shows an endpoint (QB, MIC)” value was 300 ppm. In addition, the “Synergy index Qa/QA + Qb/QB” value in test [4] stood at 1.00. Also, in test [3] (detergent +100 ppm BIT), the “Yeast growth Day 1” value was found to be 6 and the “Yeast growth Day 3” value is reported as 4 (Uniform growth, >400 colonies, single colonies still clearly recognizable).
For the molecule `N=C(N)N` [guanidine], in test [4] (guanidine alone (0 ppm BIT), added as guanidine hydrochloride, MHB), the “Qa (guanidine): concentration of guanidine as the sole agent that shows an endpoint (QA, MIC)” value is 9269 ppm. The “Synergy index Qa/QA + Qb/QB” value in test [4] worked out at 1.00.
